# Laboratory results: ChEMBL document CHEMBL1121535, “Stereochemical requirements for cannabinoid activity” (J Med Chem, 1980)
# Active and inactive are the calls of the source. No cut-off for these calls is given here.
# Columns and labels:
# Type in all cases: functional, organism-based
# Settings in all cases: Cercopithecidae
# [1] = tested on: Monkey; test: The compound was evaluated for the rating of psychotropic effects in rhesus monkey at a dose of 1 mg/Kg; value is (-) No change
# [2] = tested on: Monkey; test: The compound was evaluated for the rating of psychotropic effects in rhesus monkey at a dose of 2 mg/Kg; value is (+) drowsiness, decreased motor activity, occasional partial ptosis, occasional head drop
# [3] = tested on: Monkey; test: The compound was evaluated for the rating of psychotropic effects in rhesus monkey at a dose of 5 mg/Kg; value is (-) No change
# [4] = tested on: Monkey; test: The compound was evaluated for the rating of psychotropic effects in rhesus monkey at a dose of 2 mg/Kg; value is (-) No change
# [5] = tested on: Monkey; test: The compound was evaluated for the rating of psychotropic effects in rhesus monkey at a dose of 5 mg/Kg; value is (+) drowsiness, decreased motor activity, occasional partial ptosis, occasional head drop
# [6] = tested on: Monkey; test: The compound was evaluated for the rating of psychotropic effects in rhesus monkey at a dose of 0.1 mg/Kg; value is (+/-) tranquility
# [7] = tested on: Monkey; test: The compound was evaluated for the rating of psychotropic effects in rhesus monkey at a dose of 0.5 mg/Kg; value is (++) stupor, ataxia, suppression of motor activity, full ptosis
# [8] = tested on: Monkey; test: The compound was evaluated for the rating of psychotropic effects in rhesus monkey at a dose of 0.25 mg/Kg; value is (++) stupor, ataxia, suppression of motor activity, full ptosis
# [9] = tested on: Monkey; test: The compound was evaluated for the rating of psychotropic effects in rhesus monkey at a dose of 0.5 mg/Kg; value is (+) drowsiness, decreased motor activity, occasional partial ptosis, occasional head drop
# [10] = tested on: Monkey; test: The compound was evaluated for the rating of psychotropic effects in rhesus monkey at a dose of 0.25 mg/Kg; value is (-) No change
# [11] = tested on: Monkey; test: The compound was evaluated for the rating of psychotropic effects in rhesus monkey at a dose of 1 mg/Kg; value is (++) stupor, ataxia, suppression of motor activity, full ptosis
# [12] = tested on: Monkey; test: The compound was evaluated for the rating of psychotropic effects in rhesus monkey at a dose of 0.05 mg/Kg; value is (-) No change
# [13] = tested on: Monkey; test: The compound was evaluated for the rating of psychotropic effects in rhesus monkey at a dose of 0.1 mg/Kg; value is (++) stupor, ataxia, suppression of motor activity, full ptosis
# [14] = tested on: Monkey; test: The compound was evaluated for the rating of psychotropic effects in rhesus monkey at a dose of 2 mg/Kg; value is (++) stupor, ataxia, suppression of motor activity, full ptosis
structure (smiles),measurement,setting,value
CCCCCc1cc(O)c2c(c1)OC(C)(C)[C@@H]1CC[C@H](C)CC21 (stereo not given in full),Activity,[1],inactive
same,Activity,[2],"drowsiness, decreased motor activity, occasional partial ptosis, occasional head drop"
CCCCCc1cc(O)c2c(c1)OC(C)(C)[C@@H]1C[C@H](O)C(C)CC21 (stereo not given in full),Activity,[3],inactive
same,Activity,[1],inactive
same,Activity,[4],inactive
CCCCCc1cc(O)c2c(c1)OC(C)(C)[C@@H]1CCC(C)[C@H](O)C21 (stereo not given in full),Activity,[5],"drowsiness, decreased motor activity, occasional partial ptosis, occasional head drop"
same,Activity,[1],inactive
same,Activity,[4],inactive
CCCCCc1cc(O)c2c(c1)OC(C)(C)[C@@H]1CC=C(C)CC21 (stereo not given in full),Activity,[6],inactive
same,Activity,[7],Active
same,Activity,[8],Active
CCCCCc1cc(OC(C)=O)c2c(c1)OC(C)(C)[C@@H]1CC[C@H](COC(C)=O)CC21 (stereo not given in full),Activity,[3],inactive
same,Activity,[1],inactive
CCCCCc1cc(O)c2c(c1)OC(C)(C)[C@@H]1CC(O)[C@H](C)CC21 (stereo not given in full),Activity,[3],inactive
same,Activity,[1],inactive
CCCCCc1cc(O)c2c(c1)OC(C)(C)[C@@H]1CC[C@@H](C)CC21 (stereo not given in full),Activity,[6],+/-
same,Activity,[7],"stupor,ataxia, suppression of motor activity, full ptosis"
CCCCCc1cc(O)c2c(c1)OC(C)(C)[C@@H]1C[C@H](O)[C@H](C)CC21 (stereo not given in full),Activity,[9],"drowsiness, decreased motor activity, occasional partialptosis,occasional head drop"
same,Activity,[10],inactive
same,Activity,[11],"drowsiness, decreased motor activity, occasional partialptosis,occasional head drop"
CCCCCc1cc(O)c2c(c1)OC(C)(C)[C@@H]1CCC(C)=C[C@@H]21,Activity,[8],Active
same,Activity,[12],inactive
same,Activity,[13],Active
CCCCCc1cc(OC(C)=O)c2c(c1)OC(C)(C)[C@@H]1CCC(COC(C)=O)CC21 (stereo not given in full),Activity,[9],"drowsiness, decreased motor activity, occasional partial ptosis, occasional head drop"
same,Activity,[11],"drowsiness, decreased motor activity, occasional partial ptosis, occasional head drop"
CCCCCc1cc(O)c2c(c1)OC(C)(C)[C@@H]1CC[C@H](C)C(O)C21 (stereo not given in full),Activity,[3],inactive
same,Activity,[1],inactive
CCCCCc1cc(O)c2c(c1)OC(C)(C)[C@@H]1CC[C@H](C)[C@H](O)C21 (stereo not given in full),Activity,[14],"drowsiness, decreased motor activity, occasional partial ptosis, occasional head drop"
same,Activity,[9],"drowsiness, decreased motor activity, occasional partial ptosis, occasional head drop"
same,Activity,[11],"drowsiness, decreased motor activity, occasional partial ptosis, occasional head drop"
